According to US5322859A, “Antiglaucoma drug composition and method” (University of Iowa Research Foundation, priority 1993, dated 1994):

Columns and labels:
Alpha 2 Receptor = test: NovaScreen receptor binding, Alpha 2 Receptor
Protocol: (§1) A number of compounds were sent to NovaScreen® (5200 Freeport Centre, Baltimore, Md. 21224) to determine the compounds' receptor selectivity. […] Compounds which show inhibition of 50% or greater at an assay concentration of 10 μM to 1 nM are considered active or very potent, respectively. In the table below a number of compounds show significant results for two or more of the significant receptors.

Serotonin 1 Receptor = test: NovaScreen receptor binding, Serotonin 1 Receptor
Protocol: as §1

Serotonin 2 Receptor = Serotonin 2 Receptor (Homo sapiens, UniProt P28223); test: NovaScreen receptor binding, Serotonin 2 Receptor; conditions: for inhibition at 10 µM: 10^-5 M (10 μM); for inhibition at 0.1 µM: 10^-7 M (100 nM); for inhibition at 0.001 µM: 10^-9 M (1 nM)
Sequence of Serotonin 2 Receptor (P28223 whole entry): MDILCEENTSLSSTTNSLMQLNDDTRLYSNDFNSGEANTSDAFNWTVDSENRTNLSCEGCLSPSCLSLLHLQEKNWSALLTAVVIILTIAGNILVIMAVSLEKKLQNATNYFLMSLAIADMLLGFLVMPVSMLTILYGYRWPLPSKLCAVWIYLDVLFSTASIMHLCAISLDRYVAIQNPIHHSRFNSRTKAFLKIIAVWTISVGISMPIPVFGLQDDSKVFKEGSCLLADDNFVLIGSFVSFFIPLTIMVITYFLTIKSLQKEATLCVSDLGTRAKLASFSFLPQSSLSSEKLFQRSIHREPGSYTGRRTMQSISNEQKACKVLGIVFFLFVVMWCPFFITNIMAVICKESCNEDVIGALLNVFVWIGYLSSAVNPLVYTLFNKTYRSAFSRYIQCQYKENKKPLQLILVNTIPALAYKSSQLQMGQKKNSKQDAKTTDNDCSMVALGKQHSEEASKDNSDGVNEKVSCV
Protocol: as §1

eye = conditions: previously disclosed by applicants; 0.2% to about 0.6% w/v preferred; cited from earlier work
rabbit eye = test: IOP recovery rate assay (hypertonic sodium chloride infusion, topical drug); assay type: in vivo; conditions: 0.6% solution
Protocol: The "IOP recovery rate assay" as reported by Vareilles and Lotti (Ophthalmic Res., 13, 72-79, 1981) is used.
IOP was measured at 15, 25, 35, 45, 60, 75, 90 and 120 minutes with an applanation pneumatonometer (Digilab Model D). Fifty uL of a 0.6% solution of N,N'-dimethyl-2-phenylethylamine containing a pH 7.4 phosphate buffer was administered topically to the right eye 60 minutes before the start of the sodium chloride infusion. Control animals were given vehicle without drug.
The hypertonic sodium chloride solution causes a temporary decline in IOP which returns to normal IOP in about 90 minutes if no drug is administered. IOP gradually returns to normal at a constant rate buy more slowly if the in vivo secretion rate of aqueous humor is reduced due to the presence of drug. The return to normal IOP is measured from the positive linear slope which is a measure of the constant rate of return to normal IOP and begins at about 30-45 minutes after starting the NaCl infusion. A comparison of the slope with and without the addition of N=2, R&R'=CH3 to the rabbit eye is expressed as "% reduction".

Compound | % INHIBITION (Alpha 2 Receptor; 10^-5 M (10 μM)) | % INHIBITION (Alpha 2 Receptor; 10^-7 M (100 nM)) | % INHIBITION (Alpha 2 Receptor; 10^-9 M (1 nM)) | % INHIBITION (Serotonin 1 Receptor; 10^-5 M (10 μM)) | % INHIBITION (Serotonin 1 Receptor; 10^-7 M (100 nM)) | % INHIBITION (Serotonin 1 Receptor; 10^-9 M (1 nM)) | inhibition at 10 µM (Serotonin 2 Receptor) | inhibition at 0.1 µM (Serotonin 2 Receptor) | inhibition at 0.001 µM (Serotonin 2 Receptor) | tear stimulation (eye) | average slope of return to normal IOP (rabbit eye; 50 uL topical to right eye 60 min before NaCl infusion, n = 12 rabbit eyes, ± standard deviation, vehicle only 0.109 ± 0.0268) | % Reduction of slope vs vehicle (rabbit eye; topical, n = 12 rabbit eyes) | in vivo antiglaucoma activity (rabbit eye; topical, rabbit eye)
CCN(C)Cc1ccccc1 [n = 1, R = CH3, R' = C2 H5] | 53.0% | 4.7% | 2.2% | 17.2% | 6.2% | 5.7% |  |  |  |  |  |  | 
CCN(CCc1ccccc1)C1CCCCC1.Cl [n = 2, R = C2 H5, R' = cyclohexyl, N-cyclohexyl-N-ethyl 2-phenylethylamine hydrochloride] |  |  |  | 12.2% | -4.0% | 2.6% | 48.9% | 4.7% | -11.2% |  |  |  | 
CCCCCCN(C)CCc1ccccc1 [n = 2, R = CH3, R' = n-hexyl] | 95.7% | 6.7% | 1.6% | 55.0% | 30.0% | 10.3% | 92% | 9.6% | 2.3% |  |  |  | 
CN(C)CCc1ccccc1 [n = 2, R&R' = CH3, N,N-dimethyl-2-phenylethylamine] | 96.7% | 15.3% | 8.1% | 82.3% | 70.6% | 62.3% | 46.9% | 10.7% | -2.1% | ophthalmically effective tear stimulant | 0.066 ± 0.027 | 38.5% | potent in vivo antiglaucoma drug
CN(CCCc1ccccc1)C1CCCCC1 [n = 3, R = methyl, R' = cyclohexyl] | 81.0% | 9.3% | 3.3% | 5.7% | -10.2% | -6.3% | 82.1% | -8% | -15.4% |  |  |  | 
